Data as given in PubChem BioAssay (NCI).
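Growth conditions: 96-well plates. Treatment: test compound, 48 hours, 5 concentrations. Analysis: linear interpolation between bracketing concentrations; unreached endpoints set to highest concentration. At the TGI there is no net growth.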 Where a SMILES comes first, the peptide text is derived from it. [ ]: non-standard residue; d: D form. The star is where a group is joined. ξ: configuration not given here. NMeY = CN[C@@H](Cc1ccc(O)cc1)C(=O)O; Cbz = O=C(OCc1ccccc1)*; ξA = CC(N)C(=O)O

What was measured:
Experiment in all cases: growth of human tumour cells (NCI), 48 h
MALME-3M melanoma = test system: MALME-3M melanoma
786-0 renal = test system: 786-0 renal
HCT-15 colon = test system: HCT-15 colon
K-562 leukemia = test system: K-562 leukemia
MDA-MB-231 breast = test system: MDA-MB-231 breast
HS 578T breast = test system: HS 578T breast
BT-549 breast = test system: BT-549 breast
A549 NSCLC = test system: A549 NSCLC
NCI-H23 lung = test system: NCI-H23 lung
KM12 colon = test system: KM12 colon
MDA-MB-435 = test system: MDA-MB-435

SMILES | TGI (MALME-3M melanoma) | TGI (786-0 renal) | TGI (HCT-15 colon) | TGI (K-562 leukemia) | TGI (MDA-MB-231 breast) | TGI (HS 578T breast) | TGI (BT-549 breast) | TGI (A549 NSCLC) | TGI (NCI-H23 lung) | TGI (KM12 colon) | TGI (MDA-MB-435)
CC(C)=CC(=O)O[C@@H]1CC(C)(C)CC2C3=CCC4[C@]56CC[C@](O)(OC5)C(C)(C)C6CC[C@@]4(C)C3(C)CC[C@]21C(=O)O (some centres undefined) | > 100 µM | > 100 µM | > 100 µM | > 100 µM | > 100 µM | > 100 µM | > 100 µM | > 100 µM | 89.4 µM | > 100 µM | > 100 µM
O=C(Cn1c2ccc(Br)cc2c2nc3ccccc3nc21)NC1CCCCC1 | > 100 µM | > 100 µM | > 100 µM | > 100 µM | > 100 µM | > 100 µM | > 100 µM | > 100 µM | > 100 µM | > 100 µM | > 100 µM
C=C(CCOC)CCC1CCCCC(=C)C1=O (centres undefined) | > 100 µM | > 100 µM | > 100 µM | > 100 µM | > 100 µM | > 100 µM | > 100 µM | > 100 µM | > 100 µM | > 100 µM | > 100 µM
CCCCC[C@H](O)[C@H](C)C=C1SCCCS1 | > 100 µM | > 100 µM | > 100 µM | > 100 µM | > 100 µM | > 100 µM | > 100 µM | > 100 µM | > 100 µM | > 100 µM | > 100 µM
O=C1c2ccccc2NC2C(O)c3ccccc3N12 (centres undefined) | > 100 µM | > 100 µM | > 100 µM | > 100 µM | > 100 µM | > 100 µM | > 100 µM | 61.5 µM | 84.3 µM | > 100 µM | 31.9 µM
C=CCc1c(O)c2ccccc2[nH]c1=O | > 100 µM | > 100 µM | > 100 µM | > 100 µM | > 100 µM | > 100 µM | > 100 µM | > 100 µM | > 100 µM | > 100 µM | > 100 µM
CN(C)c1ccc(/C=C(\NC(=O)c2ccccc2)C(=O)Nc2ccccc2C(=O)NN2C(=O)CSC2c2ccc(N(C)C)cc2)cc1 (centres undefined) | > 100 µM | > 100 µM | > 100 µM | > 100 µM | > 100 µM | > 100 µM | > 100 µM | > 100 µM | > 100 µM | > 100 µM | > 100 µM
N#Cc1c(N)c(-c2ccc(Cl)cc2)c(F)c2ccccc12 | > 100 µM | > 100 µM | > 100 µM | > 100 µM | > 100 µM | > 100 µM | > 100 µM | > 100 µM | > 100 µM | > 100 µM | > 100 µM
Cc1[nH]c(=O)nc(N/N=C/c2ccc(Cl)c(Cl)c2)c1C(=O)Nc1ccc(Cl)c(Cl)c1 | > 44.5 µM | > 39 µM | > 42.9 µM | > 100 µM | 15.2 µM | 27.2 µM | 39.7 µM | 38.9 µM | > 44.9 µM | > 22.2 µM | > 39.5 µM
CCOC(=O)CCC(NC(=O)OCc1ccccc1)C(=O)NNC(=O)OC(C)(C)C (centres undefined) | > 100 µM | > 100 µM | > 100 µM | > 100 µM | > 100 µM | > 100 µM | > 100 µM | > 100 µM | > 100 µM | > 100 µM | > 100 µM
Cc1cs/c(=N\C(P(=O)(O)O)P(=O)(O)O)n1C | > 100 µM | > 100 µM | > 100 µM | > 100 µM | > 100 µM | 47.8 µM | > 100 µM | > 100 µM | > 100 µM | > 100 µM | > 100 µM
COc1ccc(C[C@@H](C(=O)NCC(N)=O)N(C)C(=O)[C@@H]2CCCN2C(=O)[C@H](CC(C)C)NC(=O)C(C)NC(=O)OCc2ccccc2)cc1 (some centres undefined) (Cbz-[ξA]LP[NMeY](Me)G-NH2) | > 100 µM | > 100 µM | > 100 µM | > 100 µM | > 100 µM | > 100 µM | > 100 µM | > 100 µM | > 100 µM | > 100 µM | > 100 µM
CCCCn1cc(C(=O)O)c(=O)c2c3sccc3ccc21 | > 100 µM | > 100 µM | > 100 µM | > 100 µM | > 100 µM | > 100 µM | > 100 µM | > 100 µM | > 100 µM | > 100 µM | > 100 µM
O=C(Nc1cccc2nsnc12)c1cc2c(cc1Cl)Sc1nccn1S2(=O)=O | > 100 µM | 32 µM | 25.6 µM | > 44.5 µM | 21.9 µM | > 100 µM | 36.9 µM | 56.1 µM | 25.3 µM | 4.65 µM | 36.5 µM
c1ccc2c(c1)CC1c3[nH]c4ccccc4c3CCN21 (centres undefined) | > 10 µM | > 10 µM | > 10 µM | > 10 µM | > 10 µM | > 10 µM | > 10 µM | > 10 µM | > 10 µM | > 10 µM | > 10 µM
Cc1cc(S(=O)(=O)Nc2n[nH]c(Nc3ccccc3)n2)c(S)cc1Cl | > 10 µM | > 10 µM | > 10 µM | > 10 µM | > 10 µM | > 10 µM | > 10 µM | > 10 µM | > 10 µM | > 10 µM | > 10 µM
COc1ccc(Cn2nc(OCc3ccccn3)c3cc([N+](=O)[O-])ccc32)cc1 | > 100 µM | > 100 µM | > 100 µM | > 100 µM | > 100 µM | > 100 µM | > 100 µM | > 100 µM | > 100 µM | > 100 µM | > 100 µM
c1ccc2c3c(ccc2c1)CSCc1ccc2ccccc2c1-3 | > 100 µM | > 100 µM | > 100 µM | > 100 µM | > 100 µM | > 100 µM | > 100 µM | > 100 µM | > 100 µM | > 100 µM | > 100 µM
O=c1c(Cc2ccc(Cl)cc2)nnc2sc(-c3ccc([N+](=O)[O-])cc3)nn12 | 55.5 µM | > 100 µM | 29.3 µM | > 100 µM | 66.3 µM | > 100 µM | 55.6 µM | > 100 µM | 54.5 µM | > 100 µM | 58.5 µM
